From patent publication US20250108038A1 (priority 2023, published 2025)

Columns and labels:
CYP2C8 = biological target: T1, CYP2C8 (Homo sapiens, UniProt P10632); test: in vitro; details: both, pH 7.4
T1 sequence (P10632 1-490): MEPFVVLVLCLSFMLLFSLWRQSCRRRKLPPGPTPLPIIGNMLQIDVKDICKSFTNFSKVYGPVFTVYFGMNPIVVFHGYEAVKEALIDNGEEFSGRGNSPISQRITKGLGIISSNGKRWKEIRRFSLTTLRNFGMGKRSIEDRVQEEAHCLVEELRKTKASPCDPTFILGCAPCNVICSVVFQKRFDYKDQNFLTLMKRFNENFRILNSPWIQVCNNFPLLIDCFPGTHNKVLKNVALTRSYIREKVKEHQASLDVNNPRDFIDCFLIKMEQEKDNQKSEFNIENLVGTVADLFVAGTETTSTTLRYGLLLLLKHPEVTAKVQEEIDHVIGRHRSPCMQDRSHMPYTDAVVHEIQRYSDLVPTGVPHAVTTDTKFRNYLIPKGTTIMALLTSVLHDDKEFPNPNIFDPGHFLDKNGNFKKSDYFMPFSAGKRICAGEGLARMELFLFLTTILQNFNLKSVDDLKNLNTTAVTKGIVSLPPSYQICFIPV

CYP2D6 = CYP2D6 (Homo sapiens, UniProt P10635); test: in vitro; details: both, pH 7.4
CYP2B6 = biological target: T2, CYP2B6 (Homo sapiens, UniProt P20813); test: in vitro; details: both, pH 7.4
T2 sequence (P20813 1-491): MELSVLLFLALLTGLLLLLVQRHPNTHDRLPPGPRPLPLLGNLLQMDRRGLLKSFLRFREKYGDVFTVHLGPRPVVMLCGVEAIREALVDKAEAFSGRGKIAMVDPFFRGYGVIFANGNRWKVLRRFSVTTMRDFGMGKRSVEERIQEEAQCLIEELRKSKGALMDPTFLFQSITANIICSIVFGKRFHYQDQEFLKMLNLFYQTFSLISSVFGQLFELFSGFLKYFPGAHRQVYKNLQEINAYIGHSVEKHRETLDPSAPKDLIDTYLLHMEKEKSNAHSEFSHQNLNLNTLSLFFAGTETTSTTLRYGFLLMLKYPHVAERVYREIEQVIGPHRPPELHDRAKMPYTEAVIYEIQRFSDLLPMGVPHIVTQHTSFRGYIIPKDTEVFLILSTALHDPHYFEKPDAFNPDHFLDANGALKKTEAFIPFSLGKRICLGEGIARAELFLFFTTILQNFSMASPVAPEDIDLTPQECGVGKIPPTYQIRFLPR

[1] = Plasma protein binding by equilibrium dialysis; type: in vitro ADME, mouse; details: for % Recovery / % Unbound: mouse plasma
Protocol: Samples of spiked plasma and blank buffer (Dulbecco's phosphate-buffered saline, DPBS) and spiked brain homogenate and blank DPBS added to opposing sides of a dialysis membrane were collected from triplicate equilibrium dialysis chambers prior to (t=0) and following 1, 2, 4 and 6 hours of incubation at 37° C. […] The LC-MS/MS method(s) for analytes (Compound I-19, Compound A and Compound B) was cross-qualified for the analysis of the DPBS samples.
A secondary stock solution of 200 μM (74.2 ug/mL) will be prepared in DMSO. This secondary stock solution will then be diluted 100-fold to 2 μM ([…]) with male CD-1 mouse plasma and brain homogenate (1:2 v/v brain:Dulbecco's phosphate buffered saline, pH 7-7.2) or buffer (DPBS).
To 2.97 mL aliquots of thawed mouse plasma or brain homogenate warmed to 37° C., 30 ul aliquots of the secondary stock solution of the test compound will be added for final concentrations of 2 μM (0.742 ug/mL). An appropriate volume of warmed buffer (DPBS) will also be spiked with the test compound at a concentration of 2 μM ([…]). Triplicate aliquots (50 μL) of each spiked plasma, brain homogenate and buffer solution will be collected prior to dialysis into labeled 1.5 mL polypropylene tubes and then stored at approximately −80° C. until bioanalysis.
Equilibrium dialysis will be performed in a 96-well Teflon dialysis unit (HTDialysis, Gales Ferry, CT). Each well of the unit consists of two chambers separated by a vertically aligned dialysis membrane (regenerated cellulose) with a molecular weight cut-off of 12-14 KDa. The equilibrium dialysis membranes will first be presoaked in deionized water for 30 min, then soaked in 20% ethanol for 20 min, followed by rinsing twice with deionized water.
The equilibrium dialysis apparatus will be assembled according to the manufacturer's directions. One chamber of each well will be immediately filled with 150 μL of blank buffer (to prevent membrane dehydration). Aliquots (150 μL) of spiked plasma, spiked brain homogenate and spiked buffer will then be added to the opposing chamber in each well. Three wells per time point per matrix will be used. The top of the plate will be sealed with an adhesive sealing film to prevent evaporation and maintain constant pH during incubation.
The dialysis apparatus will be incubated at 37° C. in an orbital shaker/incubator (Lab-Line Enviro Shaker) set at 75 rpm.
Following 1, 2, 4 and 6 hours of incubation, samples from each plasma, brain homogenate and buffer compartment will be collected and the sample volume will be documented.

CYP1A2 = biological target: T3, CYP1A2 (Homo sapiens, UniProt P05177)
T3 sequence (P05177 1-516): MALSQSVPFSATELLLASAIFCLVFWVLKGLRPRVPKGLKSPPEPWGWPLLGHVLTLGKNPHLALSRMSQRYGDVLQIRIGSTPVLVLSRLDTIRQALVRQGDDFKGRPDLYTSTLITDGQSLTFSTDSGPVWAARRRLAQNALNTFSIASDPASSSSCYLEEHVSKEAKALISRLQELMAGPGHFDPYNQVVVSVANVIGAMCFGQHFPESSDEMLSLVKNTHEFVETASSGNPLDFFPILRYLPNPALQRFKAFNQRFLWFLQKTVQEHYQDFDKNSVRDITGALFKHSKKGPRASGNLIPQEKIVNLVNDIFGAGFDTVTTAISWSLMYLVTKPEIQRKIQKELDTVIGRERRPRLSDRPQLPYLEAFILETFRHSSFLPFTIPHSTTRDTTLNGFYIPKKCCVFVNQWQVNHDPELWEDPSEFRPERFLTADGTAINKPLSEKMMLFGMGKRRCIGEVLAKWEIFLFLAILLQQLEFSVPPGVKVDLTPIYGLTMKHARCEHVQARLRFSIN

[2] = dialysis time 1 h, 2 μM, 37° C.
[3] = dialysis time 2 h, 2 μM, 37° C.
[4] = dialysis time 4 h, 2 μM, 37° C.
[5] = dialysis time 6 h, 2 μM, 37° C.

Chain of CYP2D6 (P10635 whole entry): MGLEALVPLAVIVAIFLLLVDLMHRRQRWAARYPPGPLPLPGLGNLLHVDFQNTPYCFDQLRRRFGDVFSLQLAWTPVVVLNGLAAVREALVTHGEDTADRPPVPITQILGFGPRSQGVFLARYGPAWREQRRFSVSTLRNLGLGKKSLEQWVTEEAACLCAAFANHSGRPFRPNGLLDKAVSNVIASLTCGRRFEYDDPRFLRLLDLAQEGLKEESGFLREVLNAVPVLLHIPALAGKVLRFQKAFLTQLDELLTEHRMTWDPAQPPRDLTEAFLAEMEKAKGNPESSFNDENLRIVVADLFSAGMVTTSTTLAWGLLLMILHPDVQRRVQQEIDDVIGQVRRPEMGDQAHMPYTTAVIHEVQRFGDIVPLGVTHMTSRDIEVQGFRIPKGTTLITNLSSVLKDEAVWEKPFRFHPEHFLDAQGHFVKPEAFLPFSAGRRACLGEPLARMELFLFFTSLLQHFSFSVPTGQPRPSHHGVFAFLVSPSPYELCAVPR

`OC1(c2ccc(Cl)cc2)c2ccccc2C2=NCCN21` (stereo not shown) [Compound A, 5-(4-chlorophenyl)-2,3-dihydroimidazo[1,2-b]isoindol-5-ol, reference compound] showed an inhibition at 10 µM (CYP2C8) of 48.9%, an inhibition at 10 µM (CYP2D6) of 70.8% and an inhibition at 10 µM (CYP2B6) of 62%.
For `Clc1ccc(C2(OCC3OCCO3)c3ccccc3C3=NCCN32)cc1` (stereo not shown) [Compound I-19], the “% unbound in plasma” value ([1]; 2 μM, 6 hours of dialysis, 37° C.) was 3.72±0.564%, the “fraction unbound to plasma” value ([1]; 2 μM, equilibrium dialysis) was 0.0372 and the “% recovery, plasma” value ([1]; 6 hours of dialysis) was 57.1±0.567%. The “% Recovery” value [1, 2] was 87.9 ± 3.05%, the “% Unbound” value [1, 2] was 1.43% and the “% Recovery” value [1, 3] was 80.1 ± 2.93%. The “% Unbound” value [1, 3] was 1.91 ± 0.158%, the “% Recovery” value [1, 4] was 67.6 ± 3.41% and the “% Unbound” value [1, 4] was 3.20 ± 0.700%. For the same molecule, the “% Recovery” value [1, 5] was 57.1 ± 0.567%, the “% Unbound” value [1, 5] was 3.72 ± 0.564% and the “Inhibition at Highest Test Article Concentration” value (CYP1A2; 1A2, Phenacetin, at 50 μM) was 18.2 at 50 μM %. The IC50 (CYP1A2; pooled human liver microsomes, 30 min) was “did not inhibit”.
